# Results filed as inconclusive are left out.
# Target: Virion infectivity factor (Human immunodeficiency virus type 1 group M subtype B (isolate BH10)) + Virion infectivity factor (Human immunodeficiency virus type 1 group M subtype B (isolate BRU/LAI)) + Virion infectivity factor (Human immunodeficiency virus type 1 group M subtype B (isolate PCV12)) + Virion infectivity factor (Human immunodeficiency virus type 1 group M subtype B (isolate HXB2)) + DNA dC->dU-editing enzyme APOBEC-3G (Homo sapiens) (UniProt P69720+P69721+P69722+P69723+Q9HC16)
# Assay: HIV-1 Vif–A3G interaction blockers – biochemical, TR-FRET, GST-Vif 1-94, biotin-A3G peptide, dose response retest, primary screen (AID 1117319);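 note: Vif residues 1-94 fused to GST binding biotinylated APOBEC3G peptide 110-148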
# Settings: TR-FRET GST-Vif / biotin-A3G peptide binding
row,Structure (SMILES),IC50 [µM]
1,CCC(Cc1ccccc1)NC(=O)C1CCN(S(=O)(=O)c2c(C)noc2C)CC1 (centres undefined),91
2,CCOc1cccc(CNc2ccc(O)cc2)c1OCc1ccccc1Cl,6.61
3,CCOC(=O)/C=C1\SCC(=O)N1CC(=O)NC(C)c1ccc(F)cc1 (centres undefined),28.8
4,O=C(NCCO)c1ccc2nc(-c3ccco3)c(-c3ccco3)nc2c1,0.88
5,Cc1ccccc1NC(=O)c1c(C)[nH]c(=S)c(C#N)c1-c1ccco1,18.7
6,CC1CCCN(Cc2c(O)ccc3c2O/C(=C\c2ccco2)C3=O)C1 (centres undefined),2.89
7,CC(=O)Nc1ccc(NC(=O)CSCc2cnn(-c3ccccc3)c2-n2cccc2)cc1,25.9
8,CC(C(=O)O)N1C(=O)/C(=C/C=C/c2ccco2)SC1=S (centres undefined),0.39
9,COc1ccc(CCNC(=O)/C=C/c2ccco2)cc1,37
10,CC1CCCCN1Cc1ccc(N(C)C)cc1 (centres undefined),66.6
11,O=C1c2ccccc2C(=O)N1OCCOCCOCCBr,92.3
12,O=C(OCC1O[C@@H](OC(=O)c2cc(O)c(O)c(O)c2)[C@@H](OC(=O)c2cc(O)c(O)c(O)c2)[C@@H](OC(=O)c2cc(O)c(O)c(O)c2)[C@@H]1OC(=O)c1cc(O)c(O)c(O)c1)c1cc(O)c(O)c(O)c1 (some centres undefined),< 0.195
13,CN1C(=O)/C(=C/C=C/c2ccco2)C(=O)NC1=S,13.4
14,Cc1ccc(N2C(=O)/C(=C/c3ccc(CN(CCC#N)S(C)(=O)=O)o3)C(=O)NC2=S)cc1,8.32
15,O=C1CC(c2ccco2)CC(O)=C1C=NCC1CCNCC1 (centres undefined),13.5
16,CCc1noc(N)c1C(=O)Nc1ccc(F)c(Cl)c1,74.6
17,CCOC(=O)N1CCN(c2ccc(O)cc2)CC1,16.8
18,CC(C)N1C(=O)/C(=C/C=C/c2ccco2)C(=O)N(Cc2ccco2)C1=O,2.19
19,CCOc1cc(N2CCOCC2)c(OCC)cc1NS(=O)(=O)c1ccc(Cl)s1,3.22
20,O=C(O)CSc1c2c(nc3cc(C(=O)N4CCOCC4)ccc13)CCCC2,5.6
21,N=C1C=CC(=C(c2ccc(N)cc2)c2ccc(N)cc2)C=C1,3.43
22,NS(=O)(=O)c1ccc(N=Nc2c[nH]c(=O)c(O)c2)cc1,4.08

row,Structure (SMILES),IC50 [µM]
1,O=C1C=C(c2c(O)ccc3ccccc23)c2ccccc2C1=O,2.54
2,CC1=C(C#N)C(=O)N(C2CCS(=O)(=O)C2)C(=O)/C1=C\c1ccco1 (centres undefined),0.62
3,CCCn1c(CNc2ccccc2O)nc2ccccc21,53
4,N/C(=N\N=C/c1ccc(-c2ccc(O)c(C(=O)O)c2)o1)N[N+](=O)[O-],15.2
5,CC1Cc2ccccc2N1Cc1cc(=O)n2ccsc2n1 (centres undefined),7.03
6,Cc1ccc(Nc2cnn(C34CC5CC(CC(CC(=O)O)(C5)C3)C4)c(=O)c2Cl)cc1C,96.6
7,CCc1nc2oc3cc(OC)ccc3c(=O)c2c(=O)n1Cc1ccco1,39.4
8,Cc1cc(/C=C2\SC(=S)NC2=O)c(C)n1-c1ccccc1,14.1
9,Cc1ccc2c(c1)c(=O)c1c3n2CCN(C(=O)CCl)C3CC1 (centres undefined),10.8
10,O=[n+]1c2c(n([O-])c3cc(F)c(F)cc31)CCCC2,5.33
11,CCOC(=O)c1c(C)oc2c1c(C=NCc1ccccn1)c(O)c1ccccc12,1.86
12,COc1cc2[nH]c(Cl)c([N+](=O)[O-])c2cc1OC,3.81
13,COc1ccc(C2CC(=O)Nc3cc(C)c(C)cc32)c(OC)c1OC (centres undefined),63.5
14,COc1ccc(-n2c(C)cc(C(=O)CSc3nn4c(=O)c(C(C)(C)C)nnc4s3)c2C)cc1,10.3
15,O=C1C2C3CCCC3=C3CCCC3C2C(=O)N1c1ccccc1 (centres undefined),3.44
16,Cc1cc(C)c([N+](=O)[O-])cc1-c1ccc(/C=N/NC(=O)c2nonc2N)o1,52.7
17,Cn1cnnc1SCC(=O)Nc1ncc([N+](=O)[O-])s1,36.1
18,O=S(=O)(O)c1cc(O)c(N=Nc2ccc(O)cc2O)c2ccccc12,5.25
19,CCN(CC)c1ccc(N=Cc2c(O)n(CCc3ccc(OC)c(OC)c3)c(=O)[nH]c2=O)cc1,44.1
20,O=c1[nH]c2ccccc2n2c(-c3ccccc3)nnc12,15.5
21,Cc1nccn1CC(=O)N/N=C/c1ccc(O)c(O)c1,23.2
22,CCN(CC)CCN1C(=O)c2ccccc2NC1c1ccc(N(C)C)cc1 (centres undefined),90.1

row,Structure (SMILES),IC50 [µM]
1,Cn1c(N)c(C(=O)COC(=O)C2CCCCC2)c(=O)n(C)c1=O,92.9
2,O=C(CSc1nc2ccccc2n1CCc1ccccc1)c1ccc(O)c(O)c1,2.14
3,O=C(Cc1cc(=O)[nH][nH]1)N/N=C/C=C/c1ccccc1,26.4
4,COc1ccc(Nc2ccc(OC)cc2)cc1,6.72
5,COc1cccc(=O)c2c(C)n(-c3ccc(C(=O)O)cc3)c(C)c12,3.22
6,N#Cc1c(NC(=O)CSc2ncnc3sccc23)oc(-c2ccco2)c1-c1ccco1,0.95
7,CCOc1cccc(=O)c2c(C)n(-c3ccc(C(=O)O)cc3)c(C)c12,4.49
8,CCn1c(COc2ccc3c(c2)OCO3)nnc1SCC(=O)c1ccc(Cl)cc1,78.1
9,NCCc1c[nH]c2ccccc12,1.66
10,COc1cc(CC(=O)OCC(=O)Nc2cccc([N+](=O)[O-])c2)cc(OC)c1OC,11.8
11,COC(=O)C1=C(N)OC2=C(C(=O)CCC2)C1c1cccs1 (centres undefined),44.8
12,COC(=O)c1ccccc1NC(=O)CCS(=O)(=O)c1ccc(Br)cc1,1.49
13,O=C1NC(=S)N/C1=C/c1ccc(-c2c(Br)cc([N+](=O)[O-])cc2Br)o1,39
14,Cc1ccc(C)n1-c1ccc(C(=O)O)cc1,5.12
15,COc1cccc(C2NC(=O)NC(O)(C(F)(F)F)C2C(=O)c2cccnc2)c1OC (centres undefined),47.1
16,CC(=O)Nc1ccc(S(=O)(=O)Nc2nc3ccccc3nc2Nc2ccc(C(=O)O)c(O)c2)cc1,17.4
17,O=C(CSc1ccccc1)N1CCN(c2ccccc2)CC1,67.4
18,O=C1NC(=O)C(=CN2CCc3ccccc32)C(=O)N1,91.3
19,CC(=O)c1ccc(NC(=O)CSc2nnc(-c3ccco3)c(-c3ccco3)n2)cc1,3.91
20,N#Cc1c(-c2ccco2)c2c([nH]c1=S)CCCC2,12.1
21,Cc1cc(C(=O)NNC(=O)/C=C/c2ccco2)c(C)o1,13.3
22,Cn1cccc1/C=C1\C(=O)NC(=O)N(Cc2ccco2)C1=O,9.46

row,Structure (SMILES),IC50 [µM]
1,COc1ccccc1/C=C(/CC(=O)NCc1ccccc1)c1nc2ccccc2s1,45.3
2,COc1ccc(NC(=O)CN(C)C(=O)c2cc(-c3ccco3)nc3ccccc23)cc1,4.87
3,CCOC(=O)c1ccc2c(c1)C1C=CCC1C(C(=O)O)N2 (centres undefined),1.25
4,O=C1CCCC(O)=C1N=Nc1cccc(C(=O)O)c1,5.61
5,CCCCC(=O)NC(=S)Nc1cc(C(=O)O)ccc1Cl,16
6,Cn1cccc1/C=C1/C(=O)NC(=S)N(Cc2ccc(F)cc2)C1=O,1.24
7,O=C(O)C1Nc2c(O)cc(Cl)c([N+](=O)[O-])c2C2C=CCC12 (centres undefined),0.23
8,CCN1/C(=C(\O)c2ccccc2)C(=O)c2ccccc2S1(=O)=O,55
9,Clc1ccc(OCc2nn3c(-c4ccco4)nnc3s2)c(Cl)c1,63.1
10,COc1ccc2cc(C3C(C#N)=C(N)OC(C)=C3C(C)=O)c(Cl)nc2c1 (centres undefined),19.4
11,CCOC(=O)c1sc2nc(CC(=O)OC)nc(NCc3ccco3)c2c1C,2.44
12,CCn1c(C)nc2cc(C(=O)N/N=C/c3ccc(O)c(O)c3O)ccc21,0.52
13,Brc1c(CSc2nnc(-c3ccco3)o2)nc2ccccn12,30.6
14,CCCNC1=C(C)C(=O)C2=C(C1=O)C(COC(N)=O)[C@]1(OC)C3NC3CN21 (some centres undefined),8.12
15,CC(=O)Nc1cccc(Oc2ncnc3scc(-c4ccccc4)c23)c1,16.8
16,O=C1NC(=S)SC1=C1CCCC1,6.2
17,O=C(CCS(=O)(=O)c1ccc(Br)cc1)NCCc1ccccc1,28.9
18,Oc1ccc(N=Cc2ccc(OCc3ccccc3)cc2)cc1,2.11
19,NC(=O)c1ccc(N2CCN(c3ccc(O)cc3)CC2)c([N+](=O)[O-])c1,7.08
20,CCOC(=O)c1cc2cc(F)ccc2nc1C,1.65
21,COC(=O)C1=C(C)NC(=O)/C1=C\c1ccco1,6.12
22,CCOC(=O)C1=C(Cc2ccc(Cl)cc2)C(=O)c2ccccc2C1=O,34.7

row,Structure (SMILES),IC50 [µM]
1,Oc1ccc(N=Cc2ccc(-c3cccs3)s2)cc1,0.92
2,O=c1[nH]c(=S)[nH]c2c1C(c1ccc(Br)cc1)c1c([nH]c(=S)[nH]c1=O)O2,41.1
3,COc1ccc(Cl)cc1NC(=O)CCS(=O)(=O)c1ccc(Br)cc1,8.09
4,CC(=O)NCc1c(Cl)cccc1-n1cccc1,72.7
5,O=C(O)c1ccc2c(c1)[C@@H]1C=CC[C@@H]1[C@H](c1ccccn1)N2,1.05
6,O=C(Cc1ccccc1)NC(Nc1ccccc1)C(Cl)(Cl)Cl (centres undefined),27.9
7,CCCOc1ccc(Cc2nn3c(=O)/c(=C/c4ccco4)sc3nc2=O)cc1,1.5
8,O=C(O)C[C@@H]1C(=O)O[C@@H]2C(COC(=O)c3cc(O)c(O)c(O)c3)O[C@@H](OC(=O)c3cc(O)c(O)c(O)c3)[C@@H](OC(=O)c3cc(O)c(O)c4c3[C@H]1[C@H](O)C(=O)O4)[C@H]2OC(=O)c1cc(O)c(O)c(O)c1 (some centres undefined),< 0.195
9,CC1(C)CC2(CC(c3ccccc3F)c3ccc(O)c(O)c3O2)NC(=S)N1 (centres undefined),13.7
10,O=C(COc1ccccc1Cl)c1ccc[nH]1,2.91
11,COc1cccc(-c2cc(C(=O)Nc3c(C)n(C)n(-c4ccccc4)c3=O)no2)c1,72.5
12,O=C1NC(=O)N(c2ccccc2)C(=O)/C1=C\C=C\c1ccccc1,42
13,Cc1ccc(-n2nc(-c3ccc(N)cc3)cc2N)cc1,33.5
14,C=CCn1c(O)c(C(CC)=Nc2ccc(N(C)C)cc2)c(=O)[nH]c1=O,57.6
15,CCCc1cc(=O)oc2cc(C)c(CN3CCCC3)c(O)c12,3.46
16,O=C(O)CCCN1C(=O)/C(=C\C(Cl)=C\c2ccccc2)SC1=S,2.45
17,O=[N+]([O-])c1ccc(/C=N/Nc2nc(N3CCCC3)nc(N3CCCC3)n2)o1,54.2
18,O=C1S/C(=C\C=C\c2ccco2)C(=O)N1c1ccc(O)cc1,0.69
19,O=C(Nc1ccccc1)C1=C(O)CC(c2ccco2)CC1=Nc1ccccc1 (centres undefined),15.1
20,O=[N+]([O-])c1cc(CN2CCN(c3cccc(C(F)(F)F)c3)CC2)c2cccnc2c1O,8.68
21,CCN(CC)c1ccc(N=Cc2ccc(N(CC)CC)cc2O)cc1,50.7

# Source: PubChem BioAssay AID1117319 (Southern Research Institute, 2015)
